Laboratory results as given in patent publication US20170095502A1, “Antimicrobial Metal-Binding Polymers” (priority 2015, published 2017).

Legend:
[1] = tested on: S. aureus BAA-44; experiment: MIC alone or in combination with tetracycline; details: for MIC: Staphylococcus aureus, BAA44
[2] = tested on: vancomycin-resistant Enterococcus faecalis; experiment: checkerboard assay, MIC; details: VRE
[3] = tested on: methicillin-resistant Staphylococcus aureus; experiment: checkerboard assay, MIC; details: MRSA
[4] = tested on: Bacillus anthracis (anthrax); format: cell-based
[5] = tested on: Burkholderia pseudomallei (melioidosis); format: cell-based
[6] = tested on: Yersinia pestis (plague); format: cell-based
[7] = tested on: Francisella tularensis (rabbit fever); format: cell-based
[8] = tested on: Acinetobacter baumannii; experiment: inhibitory concentrations in hospital-acquired clinical wound isolates
[9] = tested on: Enterococcus faecium; experiment: as above
[10] = tested on: Pseudomonas aeruginosa; experiment: as above
[11] = tested on: Staphylococcus aureus; experiment: as above
[12] = tested on: Candida albicans; experiment: as above
[13] = tested on: Vancomycin-resistant Staphylococcus aureus (VRSA); experiment: inhibitory concentrations against drug-resistant bacteria (potentiation of vancomycin); details: at 16 ug/ml vancomycin
[14] = tested on: Vancomycin-resistant Enterococcus faecium (VRE); experiment: as above; details: at 16 μg/ml vancomycin
[15] = tested on: Methicillin-resistant Staphylococcus aureus (MRSA); experiment: inhibitory concentrations against drug-resistant bacteria (potentiation of methicillin); details: at 4 ug/ml methicillin

CN(C)[C@@H]1C(O)=C(C(N)=O)C(=O)[C@@]2(O)C(O)=C3C(=O)c4c(O)cccc4[C@@](C)(O)[C@H]3C[C@@H]12 [TET, tetracycline, reference compound]
32 µg/mL: MIC [1]

COc1ccc2cc3[n+](cc2c1OC)CCc1cc2c(cc1-3)OCO2 [Berberine, berberine, reference compound]
500 µg/mL: MIC [2] | MIC [3]

S=C(S)N1CCCC1 [PDTC, pyrrolidine dithiocarbamate]
active: activity against biothreats [4] | activity against biothreats [5] | activity against biothreats [6] | activity against biothreats [7]
9 µg/mL: MIC [1]
62.5 µg/mL: MIC [2] | MIC [3]
synergistic effect: effect of PDTC and tetracycline (FIG. 1) ([1]; combination with tetracycline)
25 µg/mL: Inhibitory concentration ([11]; clinical isolate 6061) | Inhibitory concentration ([11]; clinical isolate B-313) | Inhibitory concentration ([15]; clinical isolate 6006)
50 µg/mL: Inhibitory concentration ([9]; clinical isolate 6080) | Inhibitory concentration ([9]; clinical isolate 6246) | Inhibitory concentration ([9]; clinical isolate 6831) | Inhibitory concentration ([11]; clinical isolate B-767) | Inhibitory concentration ([11]; clinical isolate B-14358) | Inhibitory concentration ([14]; clinical isolate 6098) | Inhibitory concentration ([14]; clinical isolate 6185) | Inhibitory concentration ([14]; clinical isolate 6591)
6.25 µg/mL: Inhibitory concentration ([12]; clinical isolate Y-27022)
12.5 µg/mL: Inhibitory concentration ([11]; clinical isolate 6108) | Inhibitory concentration ([12]; clinical isolate Y-236) | Inhibitory concentration ([12]; clinical isolate Y-477) | Inhibitory concentration ([12]; clinical isolate Y-6359) | Inhibitory concentration ([12]; clinical isolate Y-12983)
13 µg/mL: Inhibitory concentration ([13]; clinical isolate VRS 1) | Inhibitory concentration ([13]; clinical isolate VRS 9) | Inhibitory concentration ([13]; clinical isolate VRS 116) | Inhibitory concentration ([15]; clinical isolate 6051) | Inhibitory concentration ([15]; clinical isolate 6544) | Inhibitory concentration ([15]; clinical isolate 6605) | Inhibitory concentration ([15]; clinical isolate 6607)
100 µg/mL: Inhibitory concentration ([8]; clinical isolate 6043) | Inhibitory concentration ([8]; clinical isolate 6063) | Inhibitory concentration ([8]; clinical isolate 6175) | Inhibitory concentration ([8]; clinical isolate 6272) | Inhibitory concentration ([8]; clinical isolate 6838) | Inhibitory concentration ([10]; clinical isolate 5983) | Inhibitory concentration ([10]; clinical isolate 6162) | Inhibitory concentration ([10]; clinical isolate 6186) | Inhibitory concentration ([10]; clinical isolate 6295) | Inhibitory concentration ([10]; clinical isolate 6311)
